Assay results reported in ChEMBL document CHEMBL4196099, “Factor XIa Inhibitors as New Anticoagulants” (J Med Chem, 2018).

How the values were obtained:
Coagulation factor XI [1] = molecular target: T1, Coagulation factor XI (Homo sapiens, UniProt P03951); test: Inhibition of human factor 11a incubated for 60 mins by Cheng-Prusoff equation analysis
Coagulation factor XI [2] = molecular target: T1, Coagulation factor XI; test: Inhibition of human factor 11a assessed as reduction in para-nitroanilide releasee using pyroGlu-Pro-Arg-pNA.HCl substrate by chromogenic assay
Oryctolagus cuniculus [3] = species: Oryctolagus cuniculus; test: Antithrombotic activity in rabbit model of arteriovenous-shunt thrombosis; format: functional
Oryctolagus cuniculus [4] = species: Oryctolagus cuniculus; test: Antithrombotic activity in rabbit model of electrolytic-mediated carotid arterial thrombosis; format: functional
Tryptase = Tryptase (Homo sapiens, UniProt Q9BZJ3+Q15661+Q9NRR2); test: Inhibition of human lung tryptase using Z-glypro-arg-AMC incubated for 3 mins by spectrophotometry; format: protein assay
Oryctolagus cuniculus [5] = species: Oryctolagus cuniculus; test: Antithrombotic activity in rabbit model of venous thrombosis; format: functional
Trypsin = Trypsin (Homo sapiens, UniProt P07477+P07478+P35030); test: Inhibition of trypsin (unknown origin) using Chromozyme-TRY substrate incubated for 3 mins by spectrophotometry; format: protein assay
[6] = Terminal half life in healthy human following administration of 2 hrs and 5 day continuous iv infusion; format: ADME, organism-based; details: in vivo, read-out: beta t1/2

T1 sequence (P03951 19-387 limits assumed): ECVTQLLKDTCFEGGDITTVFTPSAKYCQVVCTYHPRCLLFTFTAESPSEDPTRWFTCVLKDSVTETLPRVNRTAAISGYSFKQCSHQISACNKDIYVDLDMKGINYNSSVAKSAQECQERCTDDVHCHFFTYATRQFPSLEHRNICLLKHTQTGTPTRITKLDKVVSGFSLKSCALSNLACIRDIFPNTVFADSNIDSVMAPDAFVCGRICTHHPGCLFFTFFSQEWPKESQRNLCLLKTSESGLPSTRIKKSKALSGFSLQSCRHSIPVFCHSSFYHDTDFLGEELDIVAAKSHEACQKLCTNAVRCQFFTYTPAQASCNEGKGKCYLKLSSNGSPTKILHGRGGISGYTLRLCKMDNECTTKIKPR
T1 sequence (P03951 388-625 limits assumed): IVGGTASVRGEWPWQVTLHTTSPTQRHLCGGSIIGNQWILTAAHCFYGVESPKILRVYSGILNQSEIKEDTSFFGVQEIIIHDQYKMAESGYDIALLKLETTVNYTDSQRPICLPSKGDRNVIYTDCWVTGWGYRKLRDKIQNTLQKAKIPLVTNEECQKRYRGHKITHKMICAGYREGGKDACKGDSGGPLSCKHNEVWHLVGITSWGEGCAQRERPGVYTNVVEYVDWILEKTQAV

Molecule `COC(=O)Nc1ccc2c(c1)NC(=O)CCCC[C@H](NC(=O)[C@H]1CC[C@H](CN)CC1)c1nc-2c[nH]1` has a Ki (Coagulation factor XI [1]) of 0.0003 µM.

For `CNC(=O)[C@H](Cc1ccccc1)NC(=O)c1ccc2[nH]c(=O)cc(O)c2c1`, the Kd (Coagulation factor XI [2]) was 1400 µM.

In the case of `CC(C)(C)NC(=O)N1CCN(C(=O)N2C(=O)[C@H](CCCN=C(N)N)[C@H]2C(=O)O)CC1`, the ED50 (Oryctolagus cuniculus [3]) is reported as 0.4 mg/kg/h, the ED50 (Oryctolagus cuniculus [4]) is reported as 1.5 mg/kg/h and the IC50 (Tryptase) is reported as 0.005 µM. The ED50 (Oryctolagus cuniculus [5]) was 0.7 mg/kg/h and the IC50 (Trypsin) was 0.05 µM.

`CN1CCN(c2cccc3c2CCN(C(=O)/C=C/c2c(-n4cnnn4)ccc(Cl)c2F)[C@@H]3C(=O)Nc2ccc(C(=O)O)cc2)C(=O)C1` [BMS-962212] showed a half-life [6] of 6 to 9 h.
